Results: US8952024B2, “Herbicidal pyrimidone derivatives” (E I du Pont de Nemours and Company, priority 2009, dated 2015)

Columns and labels:
Assay type in all cases: in vivo
[1] = test system: barnyardgrass (Echinochloa crus-galli); experiment: Test A pre-/postemergence plant response; conditions: for Barnyardgrass plant response rating: visual injury, 0 to 100 scale (0 no effect, 100 complete control), approx. ten days
How it was run: (§1)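 Each species was treated preemergence via directed soil spray and postemergence at the one- to two-leaf stage, with compounds formulated in a non-phytotoxic solvent plus surfactant. Visual injury relative to untreated controls was rated after about ten days on a 0–100 scale.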

[2] = test system: corn (Zea mays); experiment: Test A pre-/postemergence plant response; conditions: for Corn plant response rating: visual injury, 0 to 100 scale (0 no effect, 100 complete control), approx. ten days
How it was run: as §1

[3] = test system: giant foxtail (Setaria faberii); experiment: Test A pre-/postemergence plant response; conditions: for Foxtail, Giant plant response rating: visual injury, 0 to 100 scale (0 no effect, 100 complete control), approx. ten days
How it was run: as §1

[4] = test system: large crabgrass (Digitaria sanguinalis); experiment: Test A pre-/postemergence plant response; conditions: for Crabgrass, Large plant response rating: visual injury, 0 to 100 scale (0 no effect, 100 complete control), approx. ten days
How it was run: as §1

[5] = test system: morningglory (Ipomoea spp.); experiment: Test A pre-/postemergence plant response; conditions: for Morningglory plant response rating: visual injury, 0 to 100 scale (0 no effect, 100 complete control), approx. ten days
How it was run: as §1

[6] = test system: pigweed (Amaranthus retroflexus); experiment: Test A pre-/postemergence plant response; conditions: for Pigweed plant response rating: visual injury, 0 to 100 scale (0 no effect, 100 complete control), approx. ten days
How it was run: as §1

[7] = test system: velvetleaf (Abutilon theophrasti); experiment: Test A pre-/postemergence plant response; conditions: for Velvetleaf plant response rating: visual injury, 0 to 100 scale (0 no effect, 100 complete control), approx. ten days
How it was run: as §1

[8] = test system: wheat (Triticum aestivum); experiment: Test A pre-/postemergence plant response; conditions: for Wheat plant response rating: visual injury, 0 to 100 scale (0 no effect, 100 complete control), approx. ten days
How it was run: as §1

[9] = test system: barnyardgrass (Echinochloa crus-galli); experiment: Test B flooded paddy test; conditions: for Plant response rating, Flood, Barnyardgrass: 250 g ai/ha, flooded paddy test, visual rating on 0 to 100 scale (0 no effect, 100 complete control) after 13 to 15 days; for Plant response rating, Barnyardgrass: Flood (flooded paddy test), 13 to 15 days
How it was run: (§2)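 2-leaf seedlings; pots flooded 3 cm over soil at treatment; cpd dosed into floodwater, depth kept constant. Greenhouse 13–15 d. Visual rating vs untreated controls, 0 = no effect, 100 = complete control.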

[10] = test system: ducksalad (Heteranthera limosa); experiment: Test B flooded paddy test; conditions: for Plant response rating, Flood, Ducksalad: 250 g ai/ha, flooded paddy test, visual rating on 0 to 100 scale (0 no effect, 100 complete control) after 13 to 15 days; for Plant response rating, Ducksalad: Flood (flooded paddy test), 13 to 15 days
How it was run: as §2

[11] = test system: rice (Oryza sativa); experiment: Test B flooded paddy test; conditions: for Plant response rating, Flood, Rice: 250 g ai/ha, flooded paddy test, visual rating on 0 to 100 scale (0 no effect, 100 complete control) after 13 to 15 days; for Plant response rating, Rice: Flood (flooded paddy test), 13 to 15 days
How it was run: as §2

[12] = test system: umbrella sedge (Cyperus difformis); experiment: Test B flooded paddy test; conditions: for Plant response rating, Flood, Sedge, Umbrella: 250 g ai/ha, flooded paddy test, visual rating on 0 to 100 scale (0 no effect, 100 complete control) after 13 to 15 days; for Plant response rating, Sedge, Umbrella: Flood (flooded paddy test), 13 to 15 days
How it was run: as §2

[13] = Postemergence, 125 g ai/ha, 0 to 100 scale where 0 is no effect and 100 is complete control
[14] = Preemergence, 125 g ai/ha, 0 to 100 scale, 0 = no effect, 100 = complete control
[15] = Preemergence, 500 g ai/ha, 0 to 100 scale, 0 = no effect, 100 = complete control
[16] = 62 g ai/ha, scale of 0 to 100 where 0 is no effect and 100 is complete control
[17] = 125 g ai/ha, scale 0 to 100, 0 is no effect, 100 is complete control
[18] = Flood, 31 g ai/ha, scale 0 to 100 (0 no effect, 100 complete control)

`O=C1CCCC(O)=C1C(=O)c1cnc(-c2cccc(Br)c2)n(C2CCCCC2)c1=O` [Compound 206] was tested, and the “Plant response rating, Barnyardgrass” value [1, 13] was 90, the “Barnyardgrass plant response rating” value ([1]; Postemergence, 500 g ai/ha) was 100 and the “Plant response rating, Barnyardgrass” value [1, 14] was 0. For the same molecule, the “Plant response rating, Barnyardgrass” value [1, 15] was 20, the “Plant response rating, Corn” value [2, 13] was 0 and the “Corn plant response rating” value ([2]; Postemergence, 500 g ai/ha) was 0. The “Plant response rating, Corn” value [2, 14] was 0, the “Plant response rating, Corn” value [2, 15] was 0 and the “Plant response rating, Foxtail, Giant” value [3, 13] was 50. The “Foxtail, Giant plant response rating” value ([3]; Postemergence, 500 g ai/ha) was 90, the “Plant response rating, Foxtail, Giant” value [3, 14] was 0 and the “Plant response rating, Foxtail, Giant” value [3, 15] was 60. For the same molecule, the “Plant response rating, Crabgrass, Large” value [4, 13] was 60, the “Crabgrass, Large plant response rating” value ([4]; Postemergence, 500 g ai/ha) was 100 and the “Plant response rating, Crabgrass, Large” value [4, 14] was 10. For the same molecule, the “Plant response rating, Crabgrass, Large” value [4, 15] was 60, the “Plant response rating, Morningglory” value [5, 13] was 100 and the “Morningglory plant response rating” value ([5]; Postemergence, 500 g ai/ha) was 100. For the same molecule, the “Plant response rating, Morningglory” value [5, 14] was 0, the “Plant response rating, Morningglory” value [5, 15] was 0 and the “Plant response rating, Pigweed” value [6, 13] was 90. The “Pigweed plant response rating” value ([6]; Postemergence, 500 g ai/ha) was 100, the “Plant response rating, Pigweed” value [6, 14] was 30 and the “Plant response rating, Pigweed” value [6, 15] was 80. For the same molecule, the “Plant response rating, Velvetleaf” value [7, 13] was 100, the “Velvetleaf plant response rating” value ([7]; Postemergence, 500 g ai/ha) was 100 and the “Plant response rating, Velvetleaf” value [7, 14] was 0. For the same molecule, the “Plant response rating, Velvetleaf” value [7, 15] was 60, the “Plant response rating, Wheat” value [8, 13] was 0 and the “Wheat plant response rating” value ([8]; Postemergence, 500 g ai/ha) was 0. For the same molecule, the “Plant response rating, Wheat” value [8, 14] was 0, the “Plant response rating, Wheat” value [8, 15] was 0 and the “Plant response rating, Flood, Barnyardgrass” value [9] was 0. For the same molecule, the “Plant response rating, Barnyardgrass” value [9, 16] was 0, the “Plant response rating, Flood, Ducksalad” value [10] was 90 and the “Plant response rating, Ducksalad” value [10, 16] was 70. For the same molecule, the “Plant response rating, Flood, Rice” value [11] was 20, the “Plant response rating, Rice” value [11, 16] was 0 and the “Plant response rating, Flood, Sedge, Umbrella” value [12] was 85. For the same molecule, the “Plant response rating, Sedge, Umbrella” value [12, 16] was 60.

`O=C1CCCC(O)=C1C(=O)c1cnc(-c2ccccc2)n(CCC(F)(F)F)c1=O` [Compound 207] was tested, and the “Plant response rating, Barnyardgrass” value [1, 13] was 60, the “Barnyardgrass plant response rating” value ([1]; Postemergence, 500 g ai/ha) was 90 and the “Plant response rating, Barnyardgrass” value [1, 14] was 10. For the same molecule, the “Plant response rating, Barnyardgrass” value [1, 15] was 50, the “Plant response rating, Corn” value [2, 13] was 0 and the “Corn plant response rating” value ([2]; Postemergence, 500 g ai/ha) was 30. The “Plant response rating, Corn” value [2, 14] was 0, the “Plant response rating, Corn” value [2, 15] was 0 and the “Plant response rating, Foxtail, Giant” value [3, 13] was 60. For the same molecule, the “Foxtail, Giant plant response rating” value ([3]; Postemergence, 500 g ai/ha) was 90, the “Plant response rating, Foxtail, Giant” value [3, 14] was 30 and the “Plant response rating, Foxtail, Giant” value [3, 15] was 80. For the same molecule, the “Plant response rating, Crabgrass, Large” value [4, 13] was 60, the “Crabgrass, Large plant response rating” value ([4]; Postemergence, 500 g ai/ha) was 90 and the “Plant response rating, Crabgrass, Large” value [4, 14] was 60. The “Plant response rating, Crabgrass, Large” value [4, 15] was 100, the “Plant response rating, Morningglory” value [5, 13] was 40 and the “Morningglory plant response rating” value ([5]; Postemergence, 500 g ai/ha) was 80. For the same molecule, the “Plant response rating, Morningglory” value [5, 14] was 0, the “Plant response rating, Morningglory” value [5, 15] was 70 and the “Plant response rating, Pigweed” value [6, 13] was 100. For the same molecule, the “Pigweed plant response rating” value ([6]; Postemergence, 500 g ai/ha) was 100, the “Plant response rating, Pigweed” value [6, 14] was 80 and the “Plant response rating, Pigweed” value [6, 15] was 100. The “Plant response rating, Velvetleaf” value [7, 13] was 100, the “Velvetleaf plant response rating” value ([7]; Postemergence, 500 g ai/ha) was 100 and the “Plant response rating, Velvetleaf” value [7, 14] was 70. The “Plant response rating, Velvetleaf” value [7, 15] was 100, the “Plant response rating, Wheat” value [8, 13] was 0 and the “Wheat plant response rating” value ([8]; Postemergence, 500 g ai/ha) was 0. For the same molecule, the “Plant response rating, Wheat” value [8, 14] was 0, the “Plant response rating, Wheat” value [8, 15] was 0 and the “Plant response rating, Flood, Barnyardgrass” value [9] was 20. The “Plant response rating, Barnyardgrass” value [9, 16] was 0, the “Plant response rating, Barnyardgrass” value [9, 17] was 0 and the “Barnyardgrass plant response rating” value [9, 18] was 0. The “Plant response rating, Flood, Ducksalad” value [10] was 50, the “Plant response rating, Ducksalad” value [10, 16] was 0 and the “Plant response rating, Ducksalad” value [10, 17] was 0. For the same molecule, the “Ducksalad plant response rating” value [10, 18] was 0, the “Plant response rating, Flood, Rice” value [11] was 15 and the “Plant response rating, Rice” value [11, 16] was 0. For the same molecule, the “Plant response rating, Rice” value [11, 17] was 15, the “Rice plant response rating” value [11, 18] was 0 and the “Plant response rating, Flood, Sedge, Umbrella” value [12] was 70. For the same molecule, the “Plant response rating, Sedge, Umbrella” value [12, 16] was 40, the “Plant response rating, Sedge, Umbrella” value [12, 17] was 60 and the “Sedge, Umbrella plant response rating” value [12, 18] was 0.
